Read-outs that look alike come from different tables or passages of the source.
Experiments:
[1] = tested on: patients with uterine cervical cancer; conditions: administered parentally; cited from earlier work
[2] = tested on: HIV-associated myopathy and muscle weakness/wasting; assay: Case example: HIV-seropositive patient with HIV-associated myopathy and muscle weakness/wasting; type: in vivo, human; conditions: for return to previous levels of function and strength: trial after oxandrolone was no longer obtainable
Excerpt: A patient, a homosexual person, known to be HIV-seropositive since February 1989, noted difficulty opening drawers and bottles in May 1989. […] However, their muscle stretch reflexes remained normal.
They complained of an inability to ascend a flight of stairs. […] The patient's creatine kinase tested at 456 Units per liter. […] Round cell inflammatory infiltrates were also noted. In light of these developments, the zidovudine treatment was terminated.
Substantial improvement initially followed the discontinuation of zidovudine. However, because of a subsequent continued and progressive weakness rendering it difficult for the patient to ascend or descend a flight of stairs, a prednisone therapy (60 mg daily) was initiated.
Thereafter, a trial period of oral oxandrolone administration (2.5 milligrams, three times daily, in tablet form) was initiated. […] The patient's weight increased from 115 pounds to 130 pounds. The patient's muscle atrophy was alleviated as well.
After several months of the aforementioned therapy with oxandrolone, the patient was no longer able to obtain oxandrolone for use as a medication. Weakness and weight loss ensued.

[3] = tested on: chronic renal failure; conditions: cited from earlier work
[4] = tested on: patients with acute alcoholic hepatitis; conditions: cited from earlier work
[5] = tested on: acute uremic rats; conditions: cited from earlier work
[6] = published parameter; cited from earlier work
[7] = cited from earlier work
[8] = oral 2.5 milligrams three times daily
[9] = man, oral 10 milligram dose, biphasic decline

Structure (SMILES): CCCCCCCCCC(=O)O[C@H]1CC[C@H]2[C@@H]3CCC4=CC(=O)CC[C@@H]4[C@H]3CC[C@]12C [nandrolone decanonate]
- macrophage activity and cell-mediated immunity [1]: enhanced macrophage activity and cell-mediated immunity

Structure (SMILES): CC1(O)CC[C@H]2[C@@H]3CCC4CC(=O)OC[C@]4(C)[C@H]3CC[C@@]21C (stereo partly shown) [oxandrolone, 17-hydroxy-17-methyl-2-oxaandrostan-3-one]
- ability to use stairs within one month [2, 8]: able to ascend and descend stairs without problems
- muscle atrophy [2, 8]: alleviated
- strength by confrontation testing [2, 8]: nearly normal strength
- liver functions / side effects ([2]; oral 2.5 milligrams three times daily, liver functions closely monitored): undesirable side effects were not detected
- patient's well being, strength and weight within two weeks ([2]; oral 2.5 milligrams three times daily, tablet): improved sense of well being, became stronger, and gained weight
- patient's weight after therapy ([2]; oral 2.5 milligrams three times daily, increased from 115 pounds): 130 pounds
- clinical improvement after administration [3]: clinical improvement in appetite, cell mass, linear growth, and weight for height
- drug-related nephrotoxicity ([4]; daily doses up to 80 mg/day for four weeks and 40 mg/day for eight weeks): did not result in any drug-related nephrotoxicity
- lymphocyte number ([4]; patients with severe alcoholic hepatitis): significantly improved lymphocyte number
- muscle protein synthesis [5]: increased muscle protein synthesis
- Biological T½ [6]: 9.4 hr
- Glucuronidation [6]: Little
- Metabolism [6]: Little
- Oral Bioavailability [6]: 100%
- Plasma Clearance [6]: 43 mL/kg/h
- Tmax [6]: 1.1 h
- Vd [6]: 578 mL/kg
- protein binding [6]: >95%
- urinary excretion of the administered dose ([7]; after 96 hours): approximately 65%
- distribution half-life [7, 9]: approximately 30 minutes
- elimination half-life [7, 9]: 9.4 h
- absorption ([7]; man, oral 10 milligram dose): rapidly and completely absorbed
- time of mean peak plasma concentration ([7]; man, oral 10 milligram dose): 66 min
- protein binding ([7]; man): extensive
- fecal excretion ([7]; over the same time period (96 hours)): less than 3%
- form of excretion ([7]; taken orally): excreted mainly unchanged and unconjugated in urine
- urinary excretion of an oral dose ([7]; within 72 hours after ingestion): approximately 35%

Structure (SMILES): C[C@]12C/C(=C/O)C(=O)C[C@@H]1CC[C@@H]1[C@@H]2CC[C@@]2(C)[C@H]1CC[C@]2(C)O [oxymethalone]
- return to previous levels of function and strength [2]: did not return the patient to their previous levels of function and strength

Structure (SMILES): C[C@]12C=CC(=O)C=C1CC[C@@H]1[C@@H]2C(=O)C[C@@]2(C)[C@H]1CC[C@]2(O)C(=O)CO [prednisone]
- improvement of weakness ([2]; 60 mg daily): No significant improvement

Structure (SMILES): C[C@]12Cc3c[nH]nc3C[C@@H]1CC[C@@H]1[C@@H]2CC[C@@]2(C)[C@H]1CC[C@]2(C)O [stanazol]
- return to previous levels of function and strength [2]: did not return the patient to their previous levels of function and strength

From patent publication US6670351B1, “Method for ameliorating muscle weakness/wasting in a patient infected with human immunodeficiency virus-type 1” (Bio-Technology General Corporation, priority 1992, dated 2003)
